From patent US8952024B2, “Herbicidal pyrimidone derivatives” (E I du Pont de Nemours and Company, priority 2009, dated 2015)

What was measured:
Format in all cases: in vivo
[1] = system: velvetleaf (Abutilon theophrasti); assay: Test A pre-/postemergence plant response
In short: (§1)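 Visual injury rating on a 0–100 scale (0 = no effect, 100 = complete control) was made versus untreated controls after about ten days in the greenhouse. Compounds, formulated in a non-phytotoxic solvent mix containing surfactant, were sprayed preemergence onto loam/sand soil and postemergence onto one- to two-leaf plants.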

[2] = system: corn (Zea mays); assay: Test A pre-/postemergence plant response
In short: as §1

[3] = system: morningglory (Ipomoea spp.); assay: Test A pre-/postemergence plant response
In short: as §1

[4] = system: wheat (Triticum aestivum); assay: Test A pre-/postemergence plant response
In short: as §1

[5] = system: large crabgrass (Digitaria sanguinalis); assay: Test A pre-/postemergence plant response
In short: as §1

[6] = system: giant foxtail (Setaria faberii); assay: Test A pre-/postemergence plant response
In short: as §1

[7] = system: winter barley (Hordeum vulgare); assay: Test B postemergence plant response; details: for Barley plant response rating (0 to 100 scale): 62 g ai/ha, 0 is no effect, 13 to 15 days
In short: (§2)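 Visual ratings from 0 (no effect) to 100 (complete control), made against controls 13–15 days after treatment, kept in a greenhouse. Compounds were applied postemergence to potted plants at the 1- to 4-leaf stage (2–18 cm).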

[8] = system: chickweed (Stellaria media); assay: Test B postemergence plant response; details: for Chickweed plant response rating (0 to 100 scale): 62 g ai/ha, 0 is no effect, 13 to 15 days
In short: as §2

[9] = system: windgrass (Apera spica-venti); assay: Test B postemergence plant response; details: for Windgrass plant response rating (0 to 100 scale): 62 g ai/ha, 0 is no effect, 13 to 15 days
In short: as §2

[10] = system: canarygrass (Phalaris minor); assay: Test B postemergence plant response; details: for Canarygrass plant response rating (0 to 100 scale): 62 g ai/ha, 0 is no effect, 13 to 15 days
In short: as §2

[11] = Postemergence, 125 g ai/ha, 0 to 100 scale where 0 is no effect and 100 is complete control
[12] = Postemergence, 500 g ai/ha, 0 to 100 scale, 0 = no effect, 100 = complete control, approx. ten days
[13] = Preemergence, 125 g ai/ha, 0 to 100 scale, 0 = no effect, 100 = complete control
[14] = Preemergence, 500 g ai/ha, visual injury, 0 to 100 scale (0 no effect, 100 complete control), approx. ten days
[15] = 31 g ai/ha, postemergence, scale 0 to 100, 0 is no effect, 100 is complete control
[16] = postemergence, 100 is complete control
[17] = Postemergence, 125 g ai/ha, visual rating after 13 to 15 days, scale 0 (no effect) to 100 (complete control)
[18] = Postemergence, 250 g ai/ha, scale 0 to 100 (0 no effect, 100 complete control)
[19] = Postemergence, 125 g ai/ha, scale 0 to 100 (0 no effect, 100 complete control)

COCCOCCn1c(-c2ccccc2)ncc(C(=O)C2=C(O)CCCC2=O)c1=O [Compound 91]
Plant response rating, Velvetleaf [1, 11]: 100 | Plant response rating, Velvetleaf [1, 12]: 100 | Plant response rating, Velvetleaf [1, 13]: 100 | Plant response rating, Velvetleaf [1, 14]: 100 | Plant response rating, Corn [2, 11]: 0 | Plant response rating, Corn [2, 12]: 10 | Plant response rating, Corn [2, 13]: 0 | Plant response rating, Corn [2, 14]: 0 | Plant response rating, Morningglory [3, 11]: 100 | Plant response rating, Morningglory [3, 12]: 100 | Plant response rating, Morningglory [3, 13]: 20 | Plant response rating, Morningglory [3, 14]: 80 | Plant response rating, Wheat [4, 11]: 0 | Plant response rating, Wheat [4, 12]: 50 | Plant response rating, Wheat [4, 13]: 0 | Plant response rating, Wheat [4, 14]: 20 | Plant response rating, Crabgrass, Large [5, 11]: 90 | Plant response rating, Crabgrass, Large [5, 12]: 100 | Plant response rating, Crabgrass, Large [5, 13]: 90 | Plant response rating, Crabgrass, Large [5, 14]: 100 | Plant response rating, Foxtail, Giant [6, 11]: 80 | Plant response rating, Foxtail, Giant [6, 12]: 80 | Plant response rating, Foxtail, Giant [6, 13]: 40 | Plant response rating, Foxtail, Giant [6, 14]: 70 | Plant response rating, Barley [7, 15]: 0 | Barley plant response rating (0 to 100 scale) [7, 16]: 30 | Plant response rating, Barley [7, 17]: 30 | Plant response rating, Barley [7, 18]: 40 | Plant response rating, Chickweed [8, 15]: 85 | Chickweed plant response rating (0 to 100 scale) [8, 16]: 95 | Plant response rating, Chickweed [8, 17]: 98 | Plant response rating, Chickweed [8, 18]: 100 | Plant response rating, Windgrass [9, 15]: 10 | Windgrass plant response rating (0 to 100 scale) [9, 16]: 40 | Plant response rating, Windgrass [9, 18]: 65 | Plant response rating, Canarygrass [10, 15]: 25 | Canarygrass plant response rating (0 to 100 scale) [10, 16]: 55 | Plant response rating, Canarygrass [10, 17]: 65 | Plant response rating, Canarygrass [10, 18]: 75

O=C1CCCC(O)=C1C(=O)c1cnc(-c2ccsc2)n(C2CCCCC2)c1=O [Compound 99]
Plant response rating, Velvetleaf [1, 11]: 100 | Plant response rating, Velvetleaf [1, 12]: 100 | Plant response rating, Velvetleaf [1, 13]: 80 | Plant response rating, Velvetleaf [1, 14]: 100 | Plant response rating, Corn [2, 11]: 0 | Plant response rating, Corn [2, 12]: 20 | Plant response rating, Corn [2, 13]: 0 | Plant response rating, Corn [2, 14]: 0 | Plant response rating, Morningglory [3, 11]: 100 | Plant response rating, Morningglory [3, 12]: 100 | Plant response rating, Morningglory [3, 14]: 80 | Plant response rating, Wheat [4, 11]: 0 | Plant response rating, Wheat [4, 12]: 0 | Plant response rating, Wheat [4, 13]: 0 | Plant response rating, Wheat [4, 14]: 0 | Plant response rating, Crabgrass, Large [5, 11]: 90 | Plant response rating, Crabgrass, Large [5, 12]: 100 | Plant response rating, Crabgrass, Large [5, 13]: 60 | Plant response rating, Crabgrass, Large [5, 14]: 100 | Plant response rating, Foxtail, Giant [6, 11]: 80 | Plant response rating, Foxtail, Giant [6, 12]: 90 | Plant response rating, Foxtail, Giant [6, 13]: 40 | Plant response rating, Foxtail, Giant [6, 14]: 80 | Plant response rating, Barley [7, 15]: 5 | Barley plant response rating (0 to 100 scale) [7, 16]: 5 | Plant response rating, Barley [7, 19]: 10 | Plant response rating, Barley [7, 18]: 30 | Plant response rating, Chickweed [8, 15]: 80 | Chickweed plant response rating (0 to 100 scale) [8, 16]: 98 | Plant response rating, Chickweed [8, 19]: 98 | Plant response rating, Chickweed [8, 18]: 98 | Windgrass plant response rating (0 to 100 scale) [9, 16]: 5 | Plant response rating, Windgrass [9, 19]: 10 | Plant response rating, Windgrass [9, 18]: 60 | Plant response rating, Canarygrass [10, 15]: 40 | Canarygrass plant response rating (0 to 100 scale) [10, 16]: 60 | Plant response rating, Canarygrass [10, 19]: 60 | Plant response rating, Canarygrass [10, 18]: 70

O=C1CCCC(O)=C1C(=O)c1cnc(C2CCCC2)n(-c2ccccc2)c1=O [Compound 92]
Plant response rating, Velvetleaf [1, 11]: 100 | Plant response rating, Velvetleaf [1, 12]: 100 | Plant response rating, Velvetleaf [1, 13]: 90 | Plant response rating, Velvetleaf [1, 14]: 100 | Plant response rating, Corn [2, 11]: 0 | Plant response rating, Corn [2, 12]: 20 | Plant response rating, Corn [2, 13]: 0 | Plant response rating, Corn [2, 14]: 0 | Plant response rating, Morningglory [3, 11]: 100 | Plant response rating, Morningglory [3, 12]: 100 | Plant response rating, Morningglory [3, 13]: 0 | Plant response rating, Morningglory [3, 14]: 80 | Plant response rating, Wheat [4, 11]: 0 | Plant response rating, Wheat [4, 12]: 0 | Plant response rating, Wheat [4, 13]: 0 | Plant response rating, Wheat [4, 14]: 0 | Plant response rating, Crabgrass, Large [5, 11]: 90 | Plant response rating, Crabgrass, Large [5, 12]: 90 | Plant response rating, Crabgrass, Large [5, 13]: 90 | Plant response rating, Crabgrass, Large [5, 14]: 100 | Plant response rating, Foxtail, Giant [6, 11]: 80 | Plant response rating, Foxtail, Giant [6, 12]: 90 | Plant response rating, Foxtail, Giant [6, 13]: 70 | Plant response rating, Foxtail, Giant [6, 14]: 80 | Plant response rating, Barley [7, 15]: 0 | Barley plant response rating (0 to 100 scale) [7, 16]: 0 | Plant response rating, Barley [7, 17]: 0 | Plant response rating, Barley [7, 18]: 0 | Plant response rating, Chickweed [8, 15]: 90 | Chickweed plant response rating (0 to 100 scale) [8, 16]: 95 | Plant response rating, Chickweed [8, 17]: 98 | Plant response rating, Chickweed [8, 18]: 100 | Plant response rating, Windgrass [9, 15]: 0 | Windgrass plant response rating (0 to 100 scale) [9, 16]: 50 | Plant response rating, Windgrass [9, 18]: 90 | Plant response rating, Canarygrass [10, 15]: 0 | Canarygrass plant response rating (0 to 100 scale) [10, 16]: 0 | Plant response rating, Canarygrass [10, 17]: 0 | Plant response rating, Canarygrass [10, 18]: 0
